The values below come from ChEMBL document CHEMBL1201862, “PubChem BioAssay data set” (2004).

What all share (assay): NCI-60 cell line screen, 48 h
Experiment [1] deals with 786-0.
Experiment [2] deals with ACHN.
For experiment [3], the system named is COLO 205.
In experiment [4] the test system is DLD-1.
Experiment [5] concerns HCC 2998.
Experiment [6] concerns HCT-15.
The subject of experiment [7] is IGROV-1.
Experiment [8] relates to MOLT-4.
Experiment [9] concerns RXF 393.
In experiment [10] the test system is SF-295.
Experiment [11] has as its system SK-MEL-28.
Experiment [12] concerns SK-MEL-2.
Experiment [13] has as its system SK-MEL-5.
Experiment [14] concerns SNB-75.
Experiment [15] concerns UO-31.

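How tested: cells in 96-well plates exposed to compound for 48 hours at five concentrations. GI50: concentration for 50% inhibition of growth.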 Calls of active or inactive are those of the source. Cut-off read from the data, not from the text of the source: active = GI50 up to about 1.1 µM and inactive = higher.

In the case of `Cc1c2c(cc3c(=O)ccn(CCN(C)C)c13)c(=O)ccn2CCN(C)C`, the GI50 was 4.13 µM (inactive) in experiment [1]; 5.4 µM (inactive) in experiment [2]; 11.5 µM (inactive) in experiment [3]; 6.84 µM (inactive) in experiment [4]; 6.19 µM (inactive) in experiment [5]; 4.5 µM in experiment [6]. Also, the GI50 in experiment [7] was 12.4 µM (inactive); in [8], 3.96 µM (inactive); in [9], 14.2 µM (inactive); in experiment [10] it was 7.31 µM (inactive); in experiment [11], 20.4 µM (inactive); in experiment [12], 21 µM (inactive). Also, the GI50 is 20 µM (inactive) in experiment [13], 11.9 µM (inactive) in experiment [14] and 10.3 µM (inactive) in experiment [15].
As to `FC(F)(F)C1(Br)C(c2ccccc2)=C1c1ccccc1`, the GI50 is 15.9 µM (inactive) in [1]; 16.8 µM (inactive) in experiment [2]; 18.8 µM (inactive) in experiment [3]; 14.7 µM (inactive) in experiment [4]; 16.9 µM (inactive) in experiment [5]; 12.3 µM in experiment [6]. For the same compound, the GI50 was 24.7 µM (inactive) in experiment [7]; 2.7 µM (inactive) in experiment [8]; 15.5 µM (inactive) in experiment [9]; 13 µM (inactive) in experiment [10]; 18.9 µM (inactive) in [11]; 15.9 µM (inactive) in [12]. For the same compound, the values for the GI50 in experiment [13], in experiment [14] and in experiment [15] were 15.4 µM (inactive), 29.1 µM (inactive) and 18 µM (inactive), respectively.
For `CC(=O)Nc1ccc(C2C(C(=O)Nc3ccccc3)=C(C)NC(C)=C2C(=O)Nc2ccccc2)cc1`, the GI50 in [1] is > 100 µM (inactive); in [2], > 100 µM (inactive); in [3] it was > 100 µM (inactive); in experiment [4] it was 97.5 µM (inactive); in experiment [5], > 100 µM (inactive); in experiment [6] it was above 64.1 µM. The GI50 in [7], in experiment [8], in [9], in [10], in experiment [11] and in experiment [12] was > 100 µM (inactive) in each case. Also, the GI50 in [13], in [14] and in [15] was > 100 µM (inactive) each time.
As for `N#CCC(=O)N/N=C(\C(=O)Nc1ccc(Cl)c(Cl)c1)C1CN(c2ccccc2)N=C1N` (stereo not given), the GI50 in experiment [1] was > 100 µM (inactive); in experiment [2], > 100 µM (inactive); in experiment [3], > 100 µM (inactive); in experiment [4] it was > 100 µM (inactive); in experiment [5] it was > 100 µM (inactive); in [6], above 100 µM. The GI50 was > 100 µM (inactive) in experiment [7]; 49.8 µM (inactive) in [8]; > 100 µM (inactive) in experiment [9]; > 100 µM (inactive) in [10]; > 100 µM (inactive) in experiment [11]; > 100 µM (inactive) in experiment [12]. For the same compound, the GI50 in experiment [13], in experiment [14] and in [15] was > 100 µM (inactive) each time.
On to `COC(=O)/C(C=O)=C/Sc1ccccc1`, for which the GI50 in experiment [1] is 15.2 µM (inactive); in [2], 26.4 µM (inactive); in experiment [3], 20 µM (inactive); in experiment [4], 21.4 µM (inactive); in experiment [5] it was 37.8 µM (inactive); in experiment [6] it was 22.6 µM. Moreover, the GI50 in experiment [7] is 13.9 µM (inactive); in experiment [8], > 100 µM (inactive); in [9] it was 15.3 µM (inactive); in [10], 30.1 µM (inactive); in experiment [11] it was 19.4 µM (inactive); in experiment [12], 30.9 µM (inactive). Further, the GI50 was 14.2 µM (inactive) in experiment [13], 18.5 µM (inactive) in [14] and 10.5 µM (inactive) in [15].
